Like-named read-outs stand apart in the source and are kept apart here.
Tests used:
[1] = tested on: Methotrexat, Proteinbindung; test: Uncoupling of toxin from protein binding, molar ratio K (Table III), toxin Methotrexat; conditions: molar ratio of uncoupler to toxin
Source text: Werte können Tabelle III entnommen werden.

[2] = biological target: T1, BSA (Bos taurus, UniProt P02769); test: Adsorption of ET on activated carbon after prior release by uncoupler, BSA, batch; set-up: species or system Rind; conditions: for adsorbierte Menge nach 45 Minuten: uncoupler pre-adsorbed on SCII, then 30 mg AK
Experimental: In dieser Versuchsreihe wurde das Zusammenwirken aller bisher betrachteten Parameter im Batch erprobt. 1 ml ET-Lösung (2170/umol ET/1 PBS) wurden für ca. 18 Stunden bei 37°C mit 40 mg BSA inkubiert. Nach dieser Zeit beträgt die ET-Konzentration lediglich 5% des Ausgangswerts (d.h. 95% des ET sind an das BSA gebunden). Nun erfolgte die Zugabe von 150/ul Entkoppler (K-Cystein = 115, Fig. 7, Kurve a; K-Glutathion = 30, Fig. 8, Kurve a). Die Abkopplung des ET wird verfolgt, bis keine Zunahme der ET-Konzentration mehr eintritt. Bei der Verwendung von Cystein erfolgt die Freisetzung schneller als bei Glutathion.
Nun wurden 30 mg SCII (vorher in PBS entgast) zu den Proben hinzugegeben. Die ET-Konzentration nimmt nun rasch ab. Die gesamte Restmenge beträgt nach 45 Minuten nur noch ca. 5% des Anfangswerts. Es wurden also 95% der vorgegebenen Thiolmenge von 30 mg AK entfernt.
In einer weiteren Versuchsreihe wurde untersucht, ob der Entkoppler auch wirksam ist, wenn er zuvor an Aktivkohle adsorbiert wurde. Dazu wurden 30 mg SCII mit den Entkoppler-Lösungen 2 Stunden inkubiert. Diese vorbeladene Kohle wurde dann statt der Entkoppler-Lösung eingesetzt. Fig. 7 und 8 (jeweils Kurve b) zeigen den Abkopplungsvorgang. Die freie ET-Konzentration steigt in beiden Fällen nicht auf den Anfangswert an. Dem Freisetzungsprozeß ist eine Adsorption überlagert. Sie liegt bei AK-Glutathion um ca. 50% tiefer als bei AK-Cystein. Nach Zugabe von 30 mg AK (in PBS entgast) fällt die ET-Konzentration schnell ab. Nach 45 Minuten beträgt die adsorbierte Menge bei Verwendung von Cystein ca. 97%, bei Verwendung von Glutathion ca. 95%.

[3] = tested on: Plasma; test: Removal of protein-bound ET from plasma; conditions: for Restkonzentration an ET nach Adsorption an AK mit vorheriger Freisetzung durch Entkoppler: 30 mg AK, 45 min, relative to initial value
[4] = biological target: T1, BSA; test: Adsorption of protein-bound ET on activated carbon without prior release, BSA; set-up: species or system Rind; conditions: K = 110, added after removal of carbon; BSA and HSA samples
Experimental: (§1) Um die Leistungsfähigkeit der ET-Entfernung nach vorhergehender Abkopplung von Protein beurteilen zu können, wurde die Adsorptionskinetik ohneverwendung eines Entkopplers untersucht. Dazu wurden im Batchversuch Proben, die 40 mg BSA oder HSA auf 1 ml ET-Lösung (2170/umol ET/ 1 PBS) enthielten, über Nacht auf einem Rollermixer inkubiert. Nach Einstellen des Gleichgewichts wurde am nächsten Tag die Konzentration an ET bestimmt. Sie lag für BSA bei ca. 11% und für HSA bei ca. 21% der Ausgangskonzentration. Zu beiden Proben wurden 30 mg SCII (vorher in PBS entgast) zugegeben und die freie ET-Konzentration fortlaufend gemessen. Nach 45 Minuten wurden die AK entfernt und Cystein zugegeben. […] Fig. 6 zeigt den Verlauf der ET-Konzentration. Die Probe, die HSA enthielt, wies eine Abnahme der ET-Menge durch Adsorption von 78% auf, die Probe mit BSA lediglich von ca. 68%. Dieses Ergebnis deckt sich mit der Beobachtung,daß ET stärker an BSA gebunden ist als an HSA. Damit konnte gezeigt werden, daß proteingebundenes ET durch Aktivkohle entfernt werden kann. Die Restkonzentration liegt jedoch relativ hoch, und die Kinetik ist langsam.

[5] = biological target: T2, Ethanthiol-Protein-Komplex (BSA) (Bos taurus, UniProt P02769); test: Variation of the uncoupler amount, release of ET from BSA; set-up: species or system Rind; conditions: compared with reduced Glutathion
T2 construct: Rinderserumalbumin (BSA, bovine serum albumin); purchased Behring, Marburg
Experimental: Um die Wirksamkeit der beiden Entkoppler vergleichen zu können, wurden Proben mit 40 mg BSA auf 1 ml ET-Lösung (2170/umol ET/1 PBS) über Nacht bei 37 °C inkubiert. Nach dieser Zeit betrug die freie Thiolkonzentration ca. 2 bis 5% der Ausgangskonzentration. Nach der Zugabe unterschiedlicher Entkoppler-Mengen wurde die Freisetzung des ET gaschromatographisch verfolgt. Fig. 3 und 4 zeigen den Verlauf der ET-Konzentration als Funktion der Zeit. Die Zugabe des Entkopplers erfolgte zum Zeitpunkt t = o. Der Parameter K entspricht dem molaren Verhältnis zwischen eingesetzter Entkoppler-Menge und eingesetzter ET-Thiolmenge.

[6] = tested on: Plasmaproteine; conditions: cited from earlier work
[7] = tested on: Ethanthiol, Proteinbindung; conditions: molar ratio of uncoupler to toxin; toxin Ethanthiol (Methanthiol)
[8] = biological target: T1, BSA; test: Competitive adsorption of fatty acids and Ethanthiol on BSA; set-up: species or system Rind; conditions: rising oleic acid concentration
Source text: Aus der Literatur ist bekannt, daß Fettsäuren eine starke Proteinbindung aufweisen. Proben, die Thiol und ölsäure (einfach ungesättigte Fettsäure) enthielten, zeigten abnehmende Thioladsorption bei steigender ölsäurekonzentration.

[9] = biological target: T1, BSA; test: Binding study of toxins to protein, ultrafiltration and photometry, BSA; conditions: bovine, bsa in pbs
[10] = biological target: T3, HSA (Homo sapiens, UniProt P02768); test: Binding study of toxins to protein, ultrafiltration and photometry, HSA; assay type: in vitro ADME; conditions: HSA 80 mg in 2 ml PBS, depends on initial concentration, read-out: MTX in ungebundener Form
T3 construct: Humanserumalbumin (HSA); purchased Behring, Marburg or Sigma, St. Louis (fatty-acid-free)
Experimental: Es wurden beide Verfahren der Druckerzeugung (Druckluft, Zentrifugation) erprobt. Dazu wurden die Proben (2 ml) in die Trennzelle gefüllt und ein Teil (150fu1) abgetrennt. Durch diesen kleinen Probenverlust wird das Gleichgewicht der Probe nur schwach gestört. Die Konzentrationen der einzelnen Substanzen (Toxin und Protein) wurden photometrisch mit einem Mehrkomponentenanalyseprogramm ermittelt. Beide Meßverfahren führten zu den gleichen Ergebnissen. Bevorzugt ist das Verfahren der Ultrafiltration mit Hilfe der Zentrifugation. Dieses Verfahren erlaubt einen höheren Probendurchsatz als das Verfahren mit Druckluft. Die verwendeten Proteinkonzentrationen waren physiologisch (Albumin 40 g/l; Fibrinogen 4 g/l). Aus den bekannten Anfangskonzentrationen und der gemessenen Konzentration an freiem ungebundenen Toxin lassen sich die Bindungsparameter sowie die Adsorptionsisothermen punktweise ermitteln.
Das freie ungebundene Toxin wurde durch Ultrafiltration gewonnen und die Konzentration photometrisch mit Hilfe der Mehrkomponentenanalyse bestimmt. Die Ausgangsproben enthielten 80 mg Protein und wurden mit PBS auf 2 ml aufgefüllt (physiologische Konzentration). Die Toxinmenge wurde zwischen 100 und 1GOO/ug variiert. Es zeigten sich deutliche Unterschiede zwischen BSA und HSA.

[11] = Removal of protein-bound ET from plasma
[12] = biological target: T4, Fibrinogen (Bos taurus, UniProt P02672+P02676+P12799)
T4 sequence (P02672 20-615): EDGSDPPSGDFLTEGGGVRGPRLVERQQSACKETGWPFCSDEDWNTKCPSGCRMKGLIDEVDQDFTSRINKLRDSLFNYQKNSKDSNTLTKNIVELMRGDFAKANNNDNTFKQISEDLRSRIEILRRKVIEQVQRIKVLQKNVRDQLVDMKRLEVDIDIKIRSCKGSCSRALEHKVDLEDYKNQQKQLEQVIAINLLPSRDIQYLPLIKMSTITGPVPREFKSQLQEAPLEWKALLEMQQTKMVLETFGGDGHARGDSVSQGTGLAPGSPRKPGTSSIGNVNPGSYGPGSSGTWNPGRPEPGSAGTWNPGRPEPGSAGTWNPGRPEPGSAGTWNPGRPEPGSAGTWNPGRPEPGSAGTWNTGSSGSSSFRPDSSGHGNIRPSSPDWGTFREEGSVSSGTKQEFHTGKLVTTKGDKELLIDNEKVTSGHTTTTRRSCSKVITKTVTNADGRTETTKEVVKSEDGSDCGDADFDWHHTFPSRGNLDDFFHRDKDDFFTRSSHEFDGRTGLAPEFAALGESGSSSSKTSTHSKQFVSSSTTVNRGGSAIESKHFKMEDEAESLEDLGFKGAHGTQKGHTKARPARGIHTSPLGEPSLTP
T4 sequence (P02676 1-468): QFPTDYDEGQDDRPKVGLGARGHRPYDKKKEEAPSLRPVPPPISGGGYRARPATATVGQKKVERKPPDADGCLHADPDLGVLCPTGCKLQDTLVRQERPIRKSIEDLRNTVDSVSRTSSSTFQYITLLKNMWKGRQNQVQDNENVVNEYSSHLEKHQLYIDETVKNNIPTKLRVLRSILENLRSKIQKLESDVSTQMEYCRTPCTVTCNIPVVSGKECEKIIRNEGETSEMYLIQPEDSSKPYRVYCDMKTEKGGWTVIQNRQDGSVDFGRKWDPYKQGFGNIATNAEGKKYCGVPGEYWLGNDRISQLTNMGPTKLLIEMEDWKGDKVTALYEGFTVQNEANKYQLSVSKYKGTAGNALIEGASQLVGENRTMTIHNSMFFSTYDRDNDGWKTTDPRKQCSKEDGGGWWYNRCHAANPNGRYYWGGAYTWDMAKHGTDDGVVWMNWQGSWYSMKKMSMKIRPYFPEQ
T4 sequence (P12799 25-444): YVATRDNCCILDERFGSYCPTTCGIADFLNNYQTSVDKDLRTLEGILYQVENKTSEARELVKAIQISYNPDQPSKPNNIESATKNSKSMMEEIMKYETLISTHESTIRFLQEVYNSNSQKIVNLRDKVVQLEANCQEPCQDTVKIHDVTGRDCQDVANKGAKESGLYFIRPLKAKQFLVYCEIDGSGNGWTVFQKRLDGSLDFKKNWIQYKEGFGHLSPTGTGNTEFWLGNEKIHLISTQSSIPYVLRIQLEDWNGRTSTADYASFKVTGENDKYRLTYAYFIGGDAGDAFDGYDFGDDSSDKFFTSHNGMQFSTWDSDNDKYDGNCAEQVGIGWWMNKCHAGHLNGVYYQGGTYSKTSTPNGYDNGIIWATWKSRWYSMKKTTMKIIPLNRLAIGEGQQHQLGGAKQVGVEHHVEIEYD

[13] = biological target: T3, HSA; test: Binding of Ethanthiol to HSA, gas chromatography (headspace); assay type: in vitro ADME; conditions: 40 mg HSA per 1 ml ET solution, overnight, equilibrium
Experimental: as §1

[14] = biological target: T1, BSA; test: in vitro; conditions: bovine
[15] = biological target: T1, BSA; test: Binding of Ethanthiol to BSA, gas chromatography (headspace)

T1 sequence (P02769 25-607): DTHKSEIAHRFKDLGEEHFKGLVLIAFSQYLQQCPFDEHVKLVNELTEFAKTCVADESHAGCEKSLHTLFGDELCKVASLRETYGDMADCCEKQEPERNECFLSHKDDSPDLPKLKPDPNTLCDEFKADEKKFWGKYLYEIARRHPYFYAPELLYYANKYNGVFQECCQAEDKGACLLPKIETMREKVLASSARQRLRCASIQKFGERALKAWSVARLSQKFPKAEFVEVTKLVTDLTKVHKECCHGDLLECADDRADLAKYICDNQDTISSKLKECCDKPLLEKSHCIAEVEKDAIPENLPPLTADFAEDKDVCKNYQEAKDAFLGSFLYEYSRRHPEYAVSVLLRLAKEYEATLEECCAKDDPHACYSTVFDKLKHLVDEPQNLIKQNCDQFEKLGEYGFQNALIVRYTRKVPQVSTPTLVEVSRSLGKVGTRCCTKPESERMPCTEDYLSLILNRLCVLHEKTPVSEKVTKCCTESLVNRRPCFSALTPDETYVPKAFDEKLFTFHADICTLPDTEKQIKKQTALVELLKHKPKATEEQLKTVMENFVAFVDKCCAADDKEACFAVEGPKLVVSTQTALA
T3 sequence (P02768 25-609 limits assumed): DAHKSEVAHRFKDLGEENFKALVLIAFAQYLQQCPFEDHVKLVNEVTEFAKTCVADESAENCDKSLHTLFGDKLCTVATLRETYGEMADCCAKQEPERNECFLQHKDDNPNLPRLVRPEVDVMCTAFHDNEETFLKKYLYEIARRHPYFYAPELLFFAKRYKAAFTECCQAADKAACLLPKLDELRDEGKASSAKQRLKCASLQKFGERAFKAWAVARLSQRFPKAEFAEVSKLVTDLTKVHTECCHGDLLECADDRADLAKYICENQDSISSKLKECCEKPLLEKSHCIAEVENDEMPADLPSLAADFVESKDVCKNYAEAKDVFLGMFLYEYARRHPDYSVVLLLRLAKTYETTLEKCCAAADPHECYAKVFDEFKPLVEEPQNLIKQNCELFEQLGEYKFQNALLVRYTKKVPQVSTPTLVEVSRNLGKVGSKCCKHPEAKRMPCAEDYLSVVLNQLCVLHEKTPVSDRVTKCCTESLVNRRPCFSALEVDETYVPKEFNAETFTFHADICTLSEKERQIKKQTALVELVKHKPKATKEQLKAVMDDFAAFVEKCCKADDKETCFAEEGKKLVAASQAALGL
T2 sequence (P02769 25-607): as the sequence (P02769 25-607) above

O=C1OC(c2ccc(O)c(S(=O)(=O)O)c2)(c2ccc(O)c(S(=O)(=O)O)c2)c2c(Br)c(Br)c(Br)c(Br)c21 [Sulfobromphthalein]
K-Werte [1]: ca. 5

N[C@@H](CS)C(=O)O [Cystein]
Freisetzung, Geschwindigkeit im Vergleich zu Glutathion ([2]; K-Cystein = 115, K-Glutathion = 30): schneller | adsorbierte Menge nach 45 Minuten [2]: ca. 97% | Freisetzung, Geschwindigkeit im Vergleich zu Glutathion [3]: schnellere Freisetzung | Restkonzentration an ET nach Adsorption an AK mit vorheriger Freisetzung durch Entkoppler ([3]; uncoupler added directly): 15% | Restkonzentration an ET nach Adsorption an AK mit vorheriger Freisetzung durch Entkoppler ([3]; uncoupler pre-adsorbed on AK): 4% | Freisetzung des noch vorhandenen Ethanthiols [4]: totale Freisetzung | K-Werte für den gleichen Freisetzungsgrad an ET [5]: höher

O=C(O)c1ccccc1O [Salicylsäure]
K-Werte [1]: ca. 5 | Bindung von Pharmaka an Plasmaproteine ([6]; plasma): 80%

N[C@@H](CCC(=O)N[C@@H](CS)C(=O)NCC(=O)O)C(=O)O [Glutathion, red., Glutathion, reduziert]
adsorbierte Menge nach 45 Minuten [2]: ca. 95% | Entkopplung ([3]; ET rises again after final addition of Cystein): keine 100%ige Entkopplung | Restkonzentration an ET nach Adsorption an AK mit vorheriger Freisetzung durch Entkoppler ([3]; uncoupler added directly): 15% | Restkonzentration an ET nach Adsorption an AK mit vorheriger Freisetzung durch Entkoppler ([3]; uncoupler pre-adsorbed on AK): 16% | K-Werte [7]: ca. 100

CCCCCCCC/C=C\CCCCCCCC(=O)O [ölsäure]
Bindung von Ethanthiol an BSA durch Zugabe von ölsäure [8]: behindert oder gar blockiert

CCN(CC)CCCC(C)Nc1ccnc2cc(Cl)ccc12 (racemic) [Chloroquin]
Bindung von Pharmaka an Plasmaproteine ([6]; plasma): 55%

CN(Cc1cnc2nc(N)nc(N)c2n1)c1ccc(C(=O)N[C@@H](CCC(=O)O)C(=O)O)cc1 [Methotrexat]
fraction unbound [9]: 0.1 to 0.25 | Bindung von Pharmaka an Plasmaproteine ([6]; plasma): 80% | fraction unbound [10]: 0.3 to 0.4

Phenylbutazon
K-Werte [1]: ca. 2 | Bindung von Pharmaka an Plasmaproteine ([6]; plasma): 98%

CC1=NS(=O)(=O)c2cc(Cl)ccc2N1 [Diazoxid]
Bindung von Pharmaka an Plasmaproteine ([6]; plasma): 90%

CCS [Ethanthiol]
fraction unbound at 20 h, 2170 µM [11]: 0.33 | von Fibrinogen gebundene molare Menge von Toxin im Vergleich zu Albumin [12]: annähernd die gleiche molare Menge | Konzentration an ET, % der Ausgangskonzentration [13]: ca. 21% | fraction unbound at 18 h, 2170 µM ([14]; ET-Konzentration, % des Ausgangswerts): 0.05 | fraction unbound ([14]; Ethanthiol an BSA gebunden): ~0.05 | fraction unbound ([14]; Konzentration an ET, % der Ausgangskonzentration): ~0.11 | fraction unbound ([14]; freie Thiolkonzentration, % der Ausgangskonzentration): 0.02 to 0.05 | Adsorption des Ethanthiols an BSA bis zur Nachweisgrenze dauert [15]: ≤ 6 Stunden | Zeit, nach der 50% der ET-Menge gebunden sind ([15]; 40 mg BSA, 1 ml ET solution 2170 µmol/l, 37°C): ca. 3 Stunden

Nc1nc2c(c(=O)[nH]1)N(C=O)C(CNc1ccc(C(=O)N[C@@H](CCC(=O)O)C(=O)O)cc1)CN2 (some centres unmarked) [Leucoverin]
K-Werte [1]: ca. 5

O=c1ccc2ccccc2o1 [Coumarin]
Bindung von Pharmaka an Plasmaproteine ([6]; plasma): 99%

Nc1nc2ncc(CNc3ccc(C(=O)N[C@@H](CCC(=O)O)C(=O)O)cc3)nc2c(=O)[nH]1 [Folsäure]
K-Werte [1]: ca. 5

CN(C)CCCN1c2ccccc2CCc2ccccc21 [Imipramin]
Bindung von Pharmaka an Plasmaproteine ([6]; plasma): 90%

NNC(=O)c1ccncc1 [Isoniazid]
Bindung von Pharmaka an Plasmaproteine [6]: 100%

CN(C)CCCN1c2ccccc2Sc2ccc(Cl)cc21 [Chlorpromazin]
Bindung von Pharmaka an Plasmaproteine ([6]; plasma): 90%
